Source: ChEMBL document CHEMBL4049435, “Development of a Series of Kynurenine 3-Monooxygenase Inhibitors Leading to a Clinical Candidate for the Treatment of Acute Pancreatitis” (J Med Chem, 2017)
Activity calls are given as the source filed them. The rule behind the calls is not given here.

How the values were obtained:
Rattus norvegicus [1] = experiment: Protection against multiple organ dysfunction syndrome in acute pancreatitis-induced rat assessed as decrease in stress response plasma glucose levels at 20 mg/kg, iv as bolus dose administered 1 hr post acute pancreatitis induction followed by drug administration at 2.2 mg/kg/hr, iv as infusion over 5 hrs; format: functional, organism-based
Rattus norvegicus [2] = experiment: (§1) Organoprotective activity in lung of acute pancreatitis rat model assessed as alveolar-epithelial thickening at 20 mg/kg, iv as bolus dose administered 1 hr post acute pancreatitis induction followed by drug administration at 2.2 mg/kg/hr, iv as infusion over 5 hrs by haematoxylin/eosin stain based light microscopic analysis; format: functional, organism-based
Rattus norvegicus [3] = experiment: (§2) In vivo inhibition of KMO in rat assessed as increase in kynurenine levels in plasma at […], iv administered as bolus followed by […], iv infusion for 3 hrs; format: functional, organism-based
Rattus norvegicus [4] = experiment: as §2; format: functional, organism-based; remark: listed apart in the source
Rattus norvegicus [5] = experiment: (§3) Effect on circulating tryptophan levels in rat plasma at […], iv administered as bolus dose followed by […], iv infusion for 3 hrs; format: functional, organism-based
[6] = target: T1, Kynurenine--oxoglutarate transaminase 1 (Homo sapiens) (UniProt Q16773); experiment: Inhibition of KAT1 (unknown origin)
T1 sequence (whole entry): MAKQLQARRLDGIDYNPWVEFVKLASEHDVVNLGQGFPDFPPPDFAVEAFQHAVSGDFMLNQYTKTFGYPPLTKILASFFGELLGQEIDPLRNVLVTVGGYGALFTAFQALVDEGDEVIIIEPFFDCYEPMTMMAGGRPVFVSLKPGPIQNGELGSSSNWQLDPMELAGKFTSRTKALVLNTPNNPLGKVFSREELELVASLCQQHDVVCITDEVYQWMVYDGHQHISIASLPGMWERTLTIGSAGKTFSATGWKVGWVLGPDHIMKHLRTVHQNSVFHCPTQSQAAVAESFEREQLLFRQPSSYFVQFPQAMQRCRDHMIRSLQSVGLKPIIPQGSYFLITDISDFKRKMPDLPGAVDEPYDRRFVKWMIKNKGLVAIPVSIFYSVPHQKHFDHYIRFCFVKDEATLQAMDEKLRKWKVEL

Rattus norvegicus [7] = experiment: Organoprotective activity in lung of acute pancreatitis rat model assessed as decrease in levels of protein leak in bronchoalveolar lavage fluid at 20 mg/kg, iv as bolus dose administered 1 hr post acute pancreatitis induction followed by drug administration at 2.2 mg/kg/hr, iv as infusion over 5 hrs; format: functional, organism-based
[8] = target: Tryptophan 2,3-dioxygenase (Homo sapiens) (UniProt P48775); experiment: Inhibition of TDO (unknown origin)
Rattus norvegicus [9] = experiment: Increase in kynurenic acid levels in iv dosed rat plasma measured post last dose; format: functional, organism-based
[10] = target: T2, Kynureninase (Homo sapiens) (UniProt Q16719); experiment: Inhibition of kynureninase (unknown origin)
T2 sequence (whole entry): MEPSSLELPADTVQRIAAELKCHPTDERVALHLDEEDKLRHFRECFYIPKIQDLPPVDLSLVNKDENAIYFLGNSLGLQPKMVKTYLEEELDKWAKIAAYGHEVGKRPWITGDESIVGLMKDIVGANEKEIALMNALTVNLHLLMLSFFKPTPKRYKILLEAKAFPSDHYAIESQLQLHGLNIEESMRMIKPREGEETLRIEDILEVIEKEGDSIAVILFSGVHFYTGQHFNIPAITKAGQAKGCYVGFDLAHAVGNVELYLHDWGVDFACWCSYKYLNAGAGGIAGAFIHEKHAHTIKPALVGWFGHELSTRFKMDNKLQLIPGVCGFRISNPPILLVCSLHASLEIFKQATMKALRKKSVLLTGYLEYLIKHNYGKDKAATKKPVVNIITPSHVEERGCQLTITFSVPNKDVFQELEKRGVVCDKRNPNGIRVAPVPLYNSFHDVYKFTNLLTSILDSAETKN

Rattus norvegicus [11] = experiment: Organoprotective activity against acute pancreatitis-induced pancreatic injury in rat assessed as decrease in serum amylase levels at 20 mg/kg, iv as bolus dose administered 1 hr post acute pancreatitis induction followed by drug administration at 2.2 mg/kg/hr, iv as infusion over 5 hrs; format: functional, organism-based
Rattus norvegicus [12] = experiment: Decrease in 3-hydroxykynurenine level in plasma of rat model of cerulean-induced acute pancreatitis at 20 mg/kg, iv administered as bolus dose followed by 2.2 mg/kg/hr 5 hrs iv infusion; format: functional, organism-based
[13] = target: T3, Kynurenine 3-monooxygenase (Homo sapiens, UniProt O15229)
Target sequence in this assay (O15229 whole entry, looked up, the tested form may be a part): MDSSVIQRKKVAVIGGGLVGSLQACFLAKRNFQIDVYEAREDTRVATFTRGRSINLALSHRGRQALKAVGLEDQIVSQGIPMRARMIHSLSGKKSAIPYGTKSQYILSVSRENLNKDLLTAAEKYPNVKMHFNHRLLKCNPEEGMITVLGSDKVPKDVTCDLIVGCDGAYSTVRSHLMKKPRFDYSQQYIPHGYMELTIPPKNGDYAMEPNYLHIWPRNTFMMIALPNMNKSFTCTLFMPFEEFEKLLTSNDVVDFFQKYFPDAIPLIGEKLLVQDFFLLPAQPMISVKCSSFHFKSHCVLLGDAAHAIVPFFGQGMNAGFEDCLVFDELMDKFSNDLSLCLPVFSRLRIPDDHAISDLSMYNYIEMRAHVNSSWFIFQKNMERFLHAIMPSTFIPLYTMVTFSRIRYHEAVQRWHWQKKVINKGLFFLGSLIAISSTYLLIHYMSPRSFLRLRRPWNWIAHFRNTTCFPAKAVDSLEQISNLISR

Rattus norvegicus [14] = experiment: Organoprotective activity against acute pancreatitis-induced kidney damage in rat assessed as decrease in plasma creatinine levels at 20 mg/kg, iv as bolus dose administered 1 hr post acute pancreatitis induction followed by drug administration at 2.2 mg/kg/hr, iv as infusion over 5 hrs; format: functional, organism-based
Rattus norvegicus [15] = experiment: as §3; format: functional, organism-based; remark: listed apart in the source
Rattus norvegicus [16] = experiment: Increase in kynurenine level in plasma of rat model of cerulean-induced acute pancreatitis at 20 mg/kg, iv administered as bolus dose followed by 2.2 mg/kg/hr 5 hrs iv infusion; format: functional, organism-based
Rattus norvegicus [17] = experiment: Organoprotective activity in kidney of acute pancreatitis […] assessed as reduction in apoptotic cell count in the outer medullary stripe at 20 mg/kg, iv as bolus dose administered 1 hr post acute pancreatitis induction followed by drug administration at 2.2 mg/kg/hr, iv as infusion over 5 hrs by TUNEL staining analysis; format: functional, organism-based
Homo sapiens = organism: Homo sapiens; experiment: Inhibition of IDO (unknown origin)
Rattus norvegicus [18] = experiment: as §1, with “inflammatory infiltrates” for “alveolar-epithelial thickening”; format: functional, organism-based
[19] = target: Kynurenine/alpha-aminoadipate aminotransferase, mitochondrial (Homo sapiens) (UniProt Q8N5Z0); experiment: Inhibition of KAT2 (unknown origin)
Rattus norvegicus [20] = experiment: In vivo inhibition of KMO in iv dosed rat assessed as decrease in circulating 3-hydroxykynurenine levels in plasma measured post last dose; format: functional, organism-based
Rattus norvegicus [21] = experiment: as §3; format: functional, organism-based; remark: listed apart in the source
Rattus norvegicus [22] = experiment: as §2; format: functional, organism-based; remark: listed apart in the source
Rattus norvegicus [23] = experiment: Increase in anthranilic acid levels in iv dosed rat plasma measured post last dose; format: functional, organism-based
[24] = Clearance in Beagle dog blood at 1 mg/kg, iv by LC-MS/MS analysis; format: ADME, organism-based, Canis lupus familiaris; settings: whole blood
[25] = target: Kynurenine 3-monooxygenase (Rattus norvegicus, UniProt O88867); experiment: Inhibition of rat KMO expressed in HEK293 cells using kynurenine as substrate measured after 20 hrs by LC-MS/MS analysis; format: cell-based; settings: read-out: Ki(app)
[26] = Half life in Han-Wistar rat at 1 mg/kg, iv by LC-MS/MS analysis; format: ADME, organism-based; settings: in vivo
Plasma [27] = experiment: (§4) Unbound fraction in rat plasma at […], iv administered as bolus dose followed by […], iv infusion for 3 hrs; format: ADME, organism-based; settings: in vivo
[28] = Clearance in Han-Wistar rat blood at 1 mg/kg, iv by LC-MS/MS analysis; format: ADME, organism-based; settings: whole blood
[29] = Volume of distribution at steady state in Han-Wistar rat at 1 mg/kg, iv by LC-MS/MS analysis; format: ADME, organism-based; settings: in vivo, read-out: Vdss
[30] = Volume of distribution in Beagle dog at 1 mg/kg, iv by LC-MS/MS analysis; format: ADME, organism-based, Canis lupus familiaris; settings: in vivo
[31] = Half life in Beagle dog at 1 mg/kg, iv by LC-MS/MS analysis; format: ADME, organism-based, Canis lupus familiaris; settings: in vivo
Plasma [32] = experiment: as §4; format: ADME, organism-based; settings: in vivo; remark: listed apart in the source
[33] = Half life of the compound at pH 6 under oxidative condition; format: physicochemical
[34] = Stability of the compound in presence of light measured after 12 hrs; format: physicochemical; settings: read-out: Stability
[35] = Protein binding in Han-Wistar rat plasma at 1 mg/kg, iv by LC-MS/MS analysis; format: ADME, organism-based; settings: read-out: PPB (converted)
Plasma [36] = experiment: as §4; format: ADME, organism-based; settings: in vivo; remark: listed apart in the source
[37] = target: T3, Kynurenine 3-monooxygenase; remark: listed apart in the source
Target sequence in this assay (O15229 whole entry, the tested form may be a part): as the sequence (O15229 whole entry, looked up, the tested form may be a part) above

serum albumin = serum albumin (Homo sapiens, UniProt P02768); experiment: Binding affinity to human serum albumin by HPLC analysis; format: ADME; settings: read-out: PB (converted)
[38] = Protein binding in human plasma; format: ADME, cell-free; settings: read-out: PPB (converted)
[39] = Permeability of the compound by PAMPA; format: physicochemical; settings: read-out: permeability
[40] = target: T3, Kynurenine 3-monooxygenase; experiment: Inhibition of full length human GST-tagged KMO expressed in baculovirus infected Sf9 insect cell membranes using kynurenine as substrate measured after 1 hr by RapidFire high-throughput mass spectrometric analysis
Target sequence in this assay (O15229 whole entry, the tested form may be a part): as the sequence (O15229 whole entry, looked up, the tested form may be a part) above

[41] = Lipophilicity, log D of the compound at pH 7.4 by RP-HPLC analysis; format: physicochemical; settings: buffer
[42] = Solubility of the compound in saline measured after 24 hrs; format: physicochemical
[43] = target: T3, Kynurenine 3-monooxygenase; remark: listed apart in the source
Target sequence in this assay (O15229 whole entry, looked up, the tested form may be a part): as above

[44] = Drug uptake in plasma of rat model of cerulean-induced acute pancreatitis at 20 mg/kg, iv administered as bolus dose followed by 2.2 mg/kg/hr, iv infusion for 5 hrs; format: ADME, organism-based

serum albumin, sequence (P02768 whole entry): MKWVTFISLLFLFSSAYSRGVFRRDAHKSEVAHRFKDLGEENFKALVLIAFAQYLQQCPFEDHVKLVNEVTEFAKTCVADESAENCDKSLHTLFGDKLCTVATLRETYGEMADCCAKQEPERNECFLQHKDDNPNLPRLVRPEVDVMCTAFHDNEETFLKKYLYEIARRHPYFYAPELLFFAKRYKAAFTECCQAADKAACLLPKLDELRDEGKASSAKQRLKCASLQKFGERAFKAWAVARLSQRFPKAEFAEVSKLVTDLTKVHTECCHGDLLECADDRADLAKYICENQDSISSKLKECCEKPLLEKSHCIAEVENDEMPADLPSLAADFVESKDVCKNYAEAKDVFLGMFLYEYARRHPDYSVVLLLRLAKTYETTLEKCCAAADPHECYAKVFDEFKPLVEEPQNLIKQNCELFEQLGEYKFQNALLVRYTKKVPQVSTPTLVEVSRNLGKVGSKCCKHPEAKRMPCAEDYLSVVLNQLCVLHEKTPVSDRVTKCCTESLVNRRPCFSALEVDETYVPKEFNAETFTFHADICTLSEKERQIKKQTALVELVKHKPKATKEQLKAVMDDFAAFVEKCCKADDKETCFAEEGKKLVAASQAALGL
Tryptophan 2,3-dioxygenase (Homo sapiens), sequence (P48775 whole entry, looked up): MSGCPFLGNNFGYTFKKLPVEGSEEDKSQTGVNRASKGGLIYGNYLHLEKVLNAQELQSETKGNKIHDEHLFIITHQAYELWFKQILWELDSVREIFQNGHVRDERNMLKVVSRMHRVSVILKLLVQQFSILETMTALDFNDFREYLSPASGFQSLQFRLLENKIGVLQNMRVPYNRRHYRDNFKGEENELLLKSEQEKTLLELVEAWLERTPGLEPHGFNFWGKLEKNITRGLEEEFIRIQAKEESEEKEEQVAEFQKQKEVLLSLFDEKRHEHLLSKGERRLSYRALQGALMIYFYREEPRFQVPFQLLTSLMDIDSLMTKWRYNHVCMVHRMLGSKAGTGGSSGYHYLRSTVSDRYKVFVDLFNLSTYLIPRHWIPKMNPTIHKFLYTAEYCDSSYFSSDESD
Kynurenine/alpha-aminoadipate aminotransferase, mitochondrial (Homo sapiens), sequence (Q8N5Z0 30-425 limits assumed): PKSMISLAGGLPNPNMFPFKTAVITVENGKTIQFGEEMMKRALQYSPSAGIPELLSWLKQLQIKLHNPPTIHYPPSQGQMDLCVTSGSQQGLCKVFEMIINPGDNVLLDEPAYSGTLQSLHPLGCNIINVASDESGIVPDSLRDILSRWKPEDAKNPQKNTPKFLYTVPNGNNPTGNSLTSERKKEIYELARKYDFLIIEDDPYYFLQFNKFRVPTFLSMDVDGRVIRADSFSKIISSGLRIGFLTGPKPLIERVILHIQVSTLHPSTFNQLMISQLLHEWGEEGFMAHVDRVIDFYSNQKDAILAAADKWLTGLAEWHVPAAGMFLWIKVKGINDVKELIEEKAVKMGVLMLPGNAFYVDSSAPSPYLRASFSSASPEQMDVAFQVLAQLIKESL
Kynurenine 3-monooxygenase (Rattus norvegicus, UniProt O88867), sequence (O88867 whole entry): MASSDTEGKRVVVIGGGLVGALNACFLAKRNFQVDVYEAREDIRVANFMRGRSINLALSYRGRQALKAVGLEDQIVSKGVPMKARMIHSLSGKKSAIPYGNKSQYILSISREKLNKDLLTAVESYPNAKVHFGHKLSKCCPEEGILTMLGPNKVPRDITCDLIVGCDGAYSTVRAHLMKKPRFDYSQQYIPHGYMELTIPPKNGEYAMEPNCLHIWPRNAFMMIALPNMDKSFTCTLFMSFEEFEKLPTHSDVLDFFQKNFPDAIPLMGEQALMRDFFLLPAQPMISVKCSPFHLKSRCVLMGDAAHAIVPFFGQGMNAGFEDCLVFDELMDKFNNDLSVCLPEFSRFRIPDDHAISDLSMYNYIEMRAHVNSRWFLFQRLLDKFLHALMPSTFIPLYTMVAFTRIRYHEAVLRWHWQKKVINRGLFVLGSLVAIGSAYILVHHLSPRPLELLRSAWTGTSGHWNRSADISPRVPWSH

## C[C@@H](Oc1cc2onc(CCC(=O)O)c2cc1Cl)c1ccccn1
Rattus norvegicus [1]
  Activity: Active
Rattus norvegicus [2]
  Activity: Active
Rattus norvegicus [3]
  inhibition: Active
Rattus norvegicus [4]
  inhibition: Active
Rattus norvegicus [5]
  Activity: inactive
[6]
  inhibition: inactive
Rattus norvegicus [7]
  Activity: Active
[8]
  inhibition: inactive
Rattus norvegicus [9]
  Activity: Dose-dependent effect
[10]
  inhibition: inactive
Rattus norvegicus [11]
  Activity: Active
Rattus norvegicus [12]
  Activity: Active
[13]
  T1/2: 10 h
Rattus norvegicus [14]
  Activity: Active
Rattus norvegicus [15]
  Activity: inactive
Rattus norvegicus [16]
  Activity: Active
Rattus norvegicus [17]
  Activity: Active
Homo sapiens
  inhibition: inactive
Rattus norvegicus [18]
  Activity: Active
[19]
  inhibition: inactive
Rattus norvegicus [20]
  inhibition: Dose-dependent effect
Rattus norvegicus [21]
  Activity: inactive
Rattus norvegicus [22]
  inhibition: Active
Rattus norvegicus [23]
  Activity: Dose-dependent effect

## C[C@@H](Oc1cc2onc(CCC(=O)O)c2cc1Cl)c1ccccn1 [GSK-065]
[24]
  clearance: 0.93 mL/min/kg
[25]
  Ki: 45 nM
[26]
  half-life: 6.6 h
Plasma [27]
  Cp(f): 3 nM
[28]
  clearance: 0.8 mL/min/kg
[29]
  Vd: 0.42 L/kg
[30]
  Vd: 0.36 L/kg
[31]
  half-life: 5.8 h
Plasma [32]
  Cp(f): 405 nM
[33]
  half-life: > 1000 h
[34]
  remaining at 12 h: 97.7%
[35]
  fraction unbound: 0.022
Plasma [36]
  Cp(f): 50 nM

## C[C@@H](Oc1cc2oc(=O)n(CCC(=O)O)c2cc1Cl)c1cccnn1
[37]
  IC50: 631 nM
Serum albumin
  fraction unbound: 0.409
[38]
  fraction unbound: 0.319
[39]
  Papp: < 0.3 ×10⁻⁶ cm/s
[40]
  IC50: 1.26 nM
[41]
  logD: 0.83

## NC(CO)(CO)CO.O=C(O)CCn1c(=O)oc2cc(OCC3CC3)c(Cl)cc21
[37]
  IC50: 1580 nM
Serum albumin
  fraction unbound: 0.038
[38]
  fraction unbound: 0.04
[39]
  Papp: 1.9 ×10⁻⁶ cm/s
[40]
  IC50: 10 nM
[42]
  solubility at 24 h: > 2060 µg/mL
[41]
  logD: 2.09

## O=C(O)CCn1c(=O)oc2cc(OCc3ccccn3)c(Cl)cc21
[43]
  T1/2: 0.5 h

## C[C@@H](Oc1cc2oc(=O)n(CCC(=O)O)c2cc1Cl)c1ccccn1
[43]
  T1/2: 2 h

## NC(CO)(CO)CO.O=C(O)CCn1c(=O)oc2cc(OC3CC3)c(Cl)cc21
[37]
  IC50: 1260 nM
Serum albumin
  fraction unbound: 0.057
[38]
  fraction unbound: 0.031
[39]
  Papp: 1.5 ×10⁻⁶ cm/s
[40]
  IC50: 3.16 nM
[42]
  solubility at 24 h: > 2400 µg/mL
[41]
  logD: 1.64

## C[C@@H](Oc1cc2onc(CCC(=O)O)c2cc1Cl)c1ccccn1.NCCO
[44]
  concentration at 5 h: 600000 nM
